# Where two headings read alike, the source gives them in different places.
# Assays:
# [1] = tested on: human dermal fibroblast (HDF) cells; assay: Fibroblast-derived matrix formation (FDM) assay, 3D fibroblast culture; assay type: cell-based; conditions: for formation of fibroblast-derived matrix (3D): WE from patient #92 (FIG. 12)
# Experimental: Human dermal fibroblast (HDF) cells were seeded at 1250 cells/well on day −3 into 384-well tissue culture plates, which had been pre-coated for 1 hour at 37° C. with 0.2% gelatin solution (Sigma). When the cells reached confluence (=day 0), a matrix promoting supplement (vitamin C: 2-phospho-L-ascorbic acid trisodium salt, 100 μg/ml; Sigma) was added together with test samples containing TGF-β1 or graded concentrations of compounds −/+WE as described for the HDF proliferation assay. After 4 days, medium was replaced by fresh vitamin C—and stimulus—as well as compound-containing medium, maintaining the conditions initiated on day 0. TGF-β1 was included as a positive control to promote FDM formation. After a total incubation time of 7 to 8 days, FDM production was measured in fixed cultures via SRB staining and evaluated as described above. In some cases, the experiment was stopped and evaluated already on day 4.
# IL-1β = IL-1β secretion into the supernatant in the fibroblast proliferation assay (ELISA); assay type: cell-based, human; conditions: graded concentrations
# Experimental: (§1) Primary human dermal fibroblasts (HDF) were purchased from CELLnTEC, Bern. They were routinely grown in Dulbecco's modified Eagle's medium (DMEM) containing 10% FCS, 2 mM glutamine, and 100 U/ml penicillin/100 μg/ml streptomycin. Media, antibiotics, and glutamine were bought from Lonza. The cells were used at passage 5-15. Cells were trypsinized and seeded at 2500 cells/well in 30 μl into the inner wells of 384-well plates in the absence or presence of graded compound concentrations with or without different dilutions of sterile-filtered WE in medium. For control samples, 30 μl medium was added instead of specific stimuli. The outer wells were loaded with sterile water. The cells were incubated for 72 hours at 37° C.
# (§2) At the end of the incubation period, supernatants were removed for the determination of IL-1β, and the cells were fixed with 4% paraformaldehyde (Morphisto) for 15 minutes at room temperature and washed 3 times with PBS. A control plate was fixed after the overnight adherence of the cells (day 1) to determine the starting cell number.
# IL-1β levels were determined with a commercial ELISA kit. The amount of IL-1β contained in the wound exudate added to the cells was subtracted from the total IL-B in the supernatants in order to determine the cytokine secreted by the cells.
# [2] = tested on: primary human dermal fibroblasts (HDF); assay: Fibroblast proliferation assay (2D) in the presence of wound exudate; assay type: cell-based; conditions: for fibroblast proliferation (2D) with wound exudate: graded concentrations
# Experimental: as §1, §2
# Total cellular protein was determined as a measure of cell number by staining the fixed cells with sulforhodamine B (SRB, Sigma). A 0.4% SRB solution in 1% acetic acid was added to the wells for 30 minutes. The wells were then washed with 1% acetic acid until the wash solution remained colorless. After drying, the dye was eluted with 10 mM Tris-HCl, pH8.5, and absorbance was measured either at 550 or 492 nm for lower and higher cell densities, respectively. The average absorbance of the sample representing the day 1 starting cell number was subtracted from the absorbance values of the WE-treated cells.
# All experiments were carried out in triplicate for each sample and concentration, and means±standard deviation (SD) were used for the evaluation of the experiment. Results are expressed as percentage of control values for unstimulated cells.
# IL-8 [3] = assay: U937 cell stimulation assay (LPS-induced IL-8); assay type: cell-based, human; conditions: LPS 100 ng/ml, 16 hours (FIG. 16A)
# Experimental: The human monocytic cell line U937 (ATCC CRL 1593) was routinely grown in RPMI_1640 supplemented by 10% FCS and 2 mM glutamine, and 100 U/ml penicillin/100 μg/ml streptomycin. Cells were seeded at 4×10^5/ml in 50 μl/well of a 384-well plate and combined cells with graded concentrations of test compounds and LPS at 100 ng/ml. After 16 hours, the supernatants were transferred to fresh plates and frozen at −20° C. for IL-8 analysis, using a commercial ELISA kit.
# glucocorticoid receptor = target: T1, glucocorticoid receptor (Homo sapiens, UniProt P04150); conditions: for localization of the glucocorticoid receptor: 45 minutes at 37° C.
# T1 sequence (P04150 1-777): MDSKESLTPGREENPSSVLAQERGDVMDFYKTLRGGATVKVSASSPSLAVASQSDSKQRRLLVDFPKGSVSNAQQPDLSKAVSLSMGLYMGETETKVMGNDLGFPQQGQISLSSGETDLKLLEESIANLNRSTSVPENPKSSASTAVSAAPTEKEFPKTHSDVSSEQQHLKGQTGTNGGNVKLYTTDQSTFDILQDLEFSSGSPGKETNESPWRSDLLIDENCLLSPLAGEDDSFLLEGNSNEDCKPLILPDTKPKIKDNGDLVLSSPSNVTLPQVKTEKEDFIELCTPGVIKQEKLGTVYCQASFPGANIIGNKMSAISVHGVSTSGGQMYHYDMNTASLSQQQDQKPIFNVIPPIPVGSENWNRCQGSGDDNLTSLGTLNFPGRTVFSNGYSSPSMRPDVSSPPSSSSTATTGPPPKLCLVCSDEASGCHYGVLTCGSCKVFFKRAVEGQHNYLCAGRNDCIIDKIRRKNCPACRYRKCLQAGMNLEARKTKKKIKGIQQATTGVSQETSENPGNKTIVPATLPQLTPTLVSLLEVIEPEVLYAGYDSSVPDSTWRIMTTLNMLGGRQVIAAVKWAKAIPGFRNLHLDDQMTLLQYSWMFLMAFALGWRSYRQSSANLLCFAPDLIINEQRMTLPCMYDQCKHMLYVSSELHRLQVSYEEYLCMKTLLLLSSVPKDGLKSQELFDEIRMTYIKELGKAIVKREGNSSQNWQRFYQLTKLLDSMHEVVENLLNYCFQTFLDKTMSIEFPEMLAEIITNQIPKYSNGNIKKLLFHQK
# IL-8 [4] = assay: Primary human monocyte cytokine secretion assay (spontaneous IL-8); assay type: cell-based; conditions: 16 hours (FIG. 16B)
# Experimental: Primary human monocytes were prepared from peripheral blood mononuclear cells (PBMC). PBMC were isolated from buffy coats obtained from the Red Cross, Vienna, using LymphoPrep (Technoclone). 30 ml of buffy concentrate was diluted 1:2 with PBS, gently underlayered with 15 ml Lymphoprep in a 50 ml Falcon tube and centrifuged for 25 minutes at 1800 rpm at 21° C. The interphase was carefully transferred to a new Falcon tube and filled up to 50 ml with ice cold PBS. After another centrifugation step (10 minutes, 1200 rpm, 4° C.), the cell pellet was washed 3 times with PBS, resuspended in RPMI medium containing 20% FCS and 10% DMSO and frozen in liquid nitrogen. Monocytes were generated from frozen aliquots using positive selection with the CD14 Beads-Kit (Miltenyi) on an autoMACS-Sorter (Miltenyi) according to the manufacturer's instructions.
# Cells were seeded at 8×10^5/ml in 50 μl/well of a 384-well plate and combined cells with graded concentrations of test compounds. After 16 hours, the supernatants were transferred to fresh plates and frozen at −20° C. for IL-8 analysis, using a commercial ELISA kit.
localization of the glucocorticoid receptor (glucocorticoid receptor; 0.1 nM),localization of the glucocorticoid receptor (glucocorticoid receptor; 1 nM),localization of the glucocorticoid receptor (glucocorticoid receptor; 100 nM),localization of the glucocorticoid receptor (glucocorticoid receptor; 10 nm),SMILES,formation of fibroblast-derived matrix (3D) [1],"IL-1β secretion into the supernatant (IL-1β; WE-1 (FIG. 2B, 9B))",IL-1β secretion into the supernatant (IL-1β; WE-2 (FIG. 10B)),IL-1β secretion into the supernatant (IL-1β; WE-3 (FIG. 11B)),"fibroblast proliferation (2D) with wound exudate ([2]; WE-1 (FIG. 2A, 9A))",fibroblast proliferation (2D) with wound exudate ([2]; WE-2 (FIG. 10A)),fibroblast proliferation (2D) with wound exudate ([2]; WE-3 (FIG. 11A)),further results
N/C,N,N,N,CC(C)(C[C@@](O)(Cc1cc2ccncc2[nH]1)C(F)(F)F)c1cc(F)ccc1O [HY14234],found to be active,inhibited IL-1β secretion at the same concentrations,inhibition of IL-1β secretion was negligible,inhibited IL-1β secretion at the same concentrations,dose-dependent partial reversion of the wound exudate (WE)-induced inhibition of fibroblast proliferation,dose-dependently reversed inhibition of wound exudate (WE)-induced fibroblast proliferation,dose-dependently reversed inhibition of wound exudate (WE)-induced fibroblast proliferation,LPS-induced IL-8 secretion in U937 cells (IL-8 [3]): inhibited both LPS-induced and spontaneous IL-8 secretion; spontaneous IL-8 secretion in human monocytes (IL-8 [4]): inhibited both LPS-induced and spontaneous IL-8 secretion
N/C,N,N,N,"C[C@H](NC(=O)C(C)(F)F)[C@H](Oc1ccc2c(cnn2-c2cccc(C(=O)NC3CCOC3)c2)c1)c1ccc2c(c1)OCCO2 (stereo partly drawn) [AZD7594, 3-(5-((1R,2S)-2-(2,2-difluoropropanamido)-1-(2,3-dihydrobenzo[b][1,4]dioxin-6-yl)propoxy)-1H-indazol-1-yl)-N-(tetrahydrofuran-3-yl)benzamide]",most active of the SEGRM tested in 3D culture,,,,,,,"fibroblast proliferation, % proliferation of respective WE control ([2]; 1 μM, WE-02, WE control set to 100%): 196%; fibroblast proliferation, % proliferation of respective WE control ([2]; 1 μM, WE-03, WE control set to 100%): 161%; fibroblast proliferation, % proliferation of respective WE control ([2]; 1 μM, WE-04, WE control set to 100%): 1139%; fibroblast proliferation, % proliferation of respective WE control ([2]; 1 μM, WE-05, WE control set to 100%): 203%; fibroblast proliferation, % proliferation of respective WE control ([2]; 1 μM, WE-37, WE control set to 100%): 171%; fibroblast proliferation, % proliferation of respective WE control ([2]; 1 μM, WE-77, WE control set to 100%): 128%; efficacy on fibroblast proliferation compared with mapracorat ([2]; 1 μM, plurality of different wound exudates): comparable to the effect of mapracorat"
,N/C,N,N,CCOC[C@]12Cc3cnn(-c4ccc(F)cc4)c3C=C1CCN(S(=O)(=O)c1ccc(C(F)(F)F)cc1)C2 [CORT108297],,,,,,,,

# More lines, now with the values behind:
SMILES,localization of the glucocorticoid receptor (glucocorticoid receptor; 0.1 nM),localization of the glucocorticoid receptor (glucocorticoid receptor; 1 nM),localization of the glucocorticoid receptor (glucocorticoid receptor; 100 nM),localization of the glucocorticoid receptor (glucocorticoid receptor; 10 nm),formation of fibroblast-derived matrix (3D) [1],"IL-1β secretion into the supernatant (IL-1β; WE-1 (FIG. 2B, 9B))",IL-1β secretion into the supernatant (IL-1β; WE-2 (FIG. 10B)),IL-1β secretion into the supernatant (IL-1β; WE-3 (FIG. 11B)),"fibroblast proliferation (2D) with wound exudate ([2]; WE-1 (FIG. 2A, 9A))",fibroblast proliferation (2D) with wound exudate ([2]; WE-2 (FIG. 10A)),fibroblast proliferation (2D) with wound exudate ([2]; WE-3 (FIG. 11A)),further results
Cc1noc(=O)c2ccc(NC(=O)C(O)(CC(C)(C)c3cccc4c3OCC4)C(F)(F)F)cc12 (centres unmarked) [ZK216348],,,,,positive effect,inhibited IL-1β secretion at the same concentrations,inhibition of IL-1β secretion was negligible,inhibited IL-1β secretion at the same concentrations,dose-dependent partial reversion of the wound exudate (WE)-induced inhibition of fibroblast proliferation,dose-dependently reversed inhibition of wound exudate (WE)-induced fibroblast proliferation,dose-dependently reversed inhibition of wound exudate (WE)-induced fibroblast proliferation,"rescue of fibroblasts in 2D culture from wound-exudate-induced inhibition of proliferation, compared with HY14234 ([2]; FIGS. 9A, 10A, 11A): less efficient"
CC#C[C@]1(O)CC[C@H]2[C@@H]3CCC4=CC(=O)CCC4=C3[C@@H](c3ccc(N(C)C)cc3)C[C@@]21C [mifepristone],,,,,,,,,,,,"effect on the matrix-promoting activity of BI-653048 ([1]; mifepristone 1 μM, WE-1 (FIG. 4)): completely abrogated"
C[C@H]1C[C@H]2[C@@H]3CCC4=CC(=O)C=C[C@]4(C)[C@@]3(F)[C@@H](O)C[C@]2(C)[C@@]1(O)C(=O)CCl [Clobetasol],,,,,,,,,,,,"glucocorticoid receptor localization, positive control (glucocorticoid receptor): shows nuclear staining"

# Source: patent US12496304B2, “Selective glucocorticoid receptor modifiers for treating impaired skin wound healing” (AKRIBES BIOMEDICAL GMBH, priority 2019, dated 2025)
